Laboratory results published in PubChem BioAssay AID330 (DTP/NCI, 2004).
Where “and” joins values, the source holds several entries; their conditions need not be identical. Identical values can stand only once. Toxic doses and inconclusive results are not listed. Rule for the calls: active = survival T/C of 150% or more; inactive = T/C below 125% in these data.

System: P388 leukemia ip, CD2F1 mice, survival T/C
Experiment: NCI In Vivo Anticancer Drug Screen. Data for tumor model P388 Leukemia (intraperitoneal) in CD2F1 (CDF1) mice
Conditions: endpoint: median survival time, higher = longer survival
Method in brief: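 Mice carrying the transplanted tumor received test compound or vehicle. Survival was recorded in each group, and the value is the treated-group measurement divided by that of the vehicle-treated control group.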

[1] = dose: 50.0 mg/kg/injection, schedule: Q01DX009 (ip), vehicle: saline
[2] = dose: 100.0 mg/kg/injection, schedule: Q01DX009 (ip), vehicle: saline
[3] = dose: 200.0 mg/kg/injection, schedule: Q01DX009 (ip), vehicle: saline
[4] = dose: 50.0 mg/kg/injection, schedule: Q01DX005 (ip), vehicle: saline with Tween-80
[5] = dose: 100.0 mg/kg/injection, schedule: Q01DX005 (ip), vehicle: saline with Tween-80
[6] = dose: 200.0 mg/kg/injection, schedule: Q01DX005 (ip), vehicle: saline with Tween-80
[7] = dose: 100.0 mg/kg/injection, schedule: Q01DX009 (ip), vehicle: saline with Tween-80
[8] = dose: 60.0 mg/kg/injection, schedule: Q01DX005 (ip), vehicle: saline with Tween-80
[9] = dose: 120.0 mg/kg/injection, schedule: Q01DX005 (ip), vehicle: saline with Tween-80
[10] = dose: 240.0 mg/kg/injection, schedule: Q01DX005 (ip), vehicle: saline with Tween-80
[11] = dose: 100.0 mg/kg/injection, schedule: Q04DX002 (ip), vehicle: saline with Tween-80
[12] = dose: 200.0 mg/kg/injection, schedule: Q04DX002 (ip), vehicle: saline with Tween-80
[13] = dose: 400.0 mg/kg/injection, schedule: Q04DX002 (ip), vehicle: saline with Tween-80
[14] = dose: 60.0 mg/kg/injection, schedule: Q01DX005 (ip), vehicle: Klucel + Tween-80
[15] = dose: 120.0 mg/kg/injection, schedule: Q01DX005 (ip), vehicle: Klucel + Tween-80
[16] = dose: 50.0 mg/kg/injection, schedule: Q01DX009 (ip), vehicle: saline with Tween-80
[17] = dose: 200.0 mg/kg/injection, schedule: Q01DX009 (ip), vehicle: saline with Tween-80

Measured: T/C

C=C1C(=O)OC2C(OC(C)=O)C(C(=O)OC)CC(O)C/C(CO)=C\C(OC(=O)/C(C)=C/C)C12 (stereo unspecified)
inactive: dose: 2.0 mg/kg/injection, schedule: Q01DX009 (ip), vehicle: Klucel (hydroxypropylcellulose) (HPC) 115 % of control | dose: 4.0 mg/kg/injection, schedule: Q01DX009 (ip), vehicle: Klucel (hydroxypropylcellulose) (HPC) 108 % of control | dose: 8.0 mg/kg/injection, schedule: Q01DX009 (ip), vehicle: Klucel (hydroxypropylcellulose) (HPC) 110 % of control | dose: 16.0 mg/kg/injection, schedule: Q01DX009 (ip), vehicle: Klucel (hydroxypropylcellulose) (HPC) 100 % of control

NCCCCC(N)C(=O)O (stereo unspecified)
inactive: [1] 104 % of control | [2] 100 % of control | [3] 94 % of control

COc1ccc(Cc2cc(N=O)c(OC)cc2O)cc1
inactive: [4] 90 % of control | [5] 87 % of control

O=c1n(-c2ccccc2)c(=O)n2n1C1C3C4C5C1C5C2C43 (stereo unspecified)
inactive: dose: 6.25 mg/kg/injection, schedule: Q01DX009 (ip), vehicle: Klucel (hydroxypropylcellulose) (HPC) 100 % of control | dose: 12.5 mg/kg/injection, schedule: Q01DX009 (ip), vehicle: Klucel (hydroxypropylcellulose) (HPC) 87 % of control

CC(C)CCC(NS(=O)(=O)c1cc(I)c(N)c(I)c1)C(=O)O (stereo unspecified)
inactive: [4] 99 % of control | [5] 96 % of control | [6] 103 % of control

CC(C)SC(=S)Nc1ccc(Cl)c([N+](=O)[O-])c1
inactive: [1] 99 % of control | [2] 93 % of control | [3] 103 % of control

Nc1ccc2[nH]c(=S)[nH]c2c1
inactive: dose: 10.0 mg/kg/injection, schedule: Q01DX009 (ip), vehicle: saline with Tween-80 100 % of control | dose: 20.0 mg/kg/injection, schedule: Q01DX009 (ip), vehicle: saline with Tween-80 104 % of control | dose: 40.0 mg/kg/injection, schedule: Q01DX009 (ip), vehicle: saline with Tween-80 100 % of control | [7] 95 % of control | dose: 400.0 mg/kg/injection, schedule: Q01DX009 (ip), vehicle: saline with Tween-80 95 % of control

CCOc1c(Br)cc(/C=C/[N+](=O)[O-])cc1OC
inactive: dose: 3.75 mg/kg/injection, schedule: Q01DX005 (ip), vehicle: saline with Tween-80 103 % of control | dose: 7.5 mg/kg/injection, schedule: Q01DX005 (ip), vehicle: saline with Tween-80 112 % of control and 116 % of control | dose: 15.0 mg/kg/injection, schedule: Q01DX005 (ip), vehicle: saline with Tween-80 109 % of control and 120 % of control | dose: 30.0 mg/kg/injection, schedule: Q01DX005 (ip), vehicle: saline with Tween-80 120 % of control

N=C(N)Sc1cc(Br)c[n+]([O-])c1
inactive: dose: 50.0 mg/kg/injection, schedule: Q01DX005 (ip), vehicle: Klucel (hydroxypropylcellulose) (HPC) 104 % of control | dose: 100.0 mg/kg/injection, schedule: Q01DX005 (ip), vehicle: Klucel (hydroxypropylcellulose) (HPC) 102 % of control | dose: 200.0 mg/kg/injection, schedule: Q01DX005 (ip), vehicle: Klucel (hydroxypropylcellulose) (HPC) 100 % of control

CCC#CC(=O)OCC
inactive: [8] 113 % of control | [9] 102 % of control | [10] 121 % of control

O=NNc1cncc2ccccc12
inactive: dose: 1.56 mg/kg/injection, schedule: Q01DX009 (ip), vehicle: water 100 % of control | dose: 3.12 mg/kg/injection, schedule: Q01DX009 (ip), vehicle: water 94 % of control | dose: 6.0 mg/kg/injection, schedule: Q01DX008 (ip), vehicle: water 102 % of control | dose: 6.25 mg/kg/injection, schedule: Q01DX009 (ip), vehicle: water 94 % of control | dose: 12.5 mg/kg/injection, schedule: Q01DX008 (ip), vehicle: water 113 % of control | dose: 12.5 mg/kg/injection, schedule: Q01DX009 (ip), vehicle: water 104 % of control | dose: 25.0 mg/kg/injection, schedule: Q01DX008 (ip), vehicle: water 111 % of control | dose: 25.0 mg/kg/injection, schedule: Q01DX009 (ip), vehicle: water 115 % of control | dose: 50.0 mg/kg/injection, schedule: Q01DX008 (ip), vehicle: water 116 % of control

O=C1c2ccccc2C(=O)c2c1cccc2N1C(=O)C=CC1=O
inactive: [8] 101 % of control | [9] 95 % of control | [10] 93 % of control

OC1(c2cccc(Cl)c2)C2=NCCCN2c2ccccc21 (stereo unspecified)
inactive: dose: 6.25 mg/kg/injection, schedule: Q01DX009 (ip), vehicle: saline with Tween-80 95 % of control | dose: 12.5 mg/kg/injection, schedule: Q01DX009 (ip), vehicle: saline with Tween-80 91 % of control

CCCCCC1CCCC2NC(=O)CCC12 (stereo unspecified)
inactive: [11] 104 % of control | [12] 97 % of control | [13] 89 % of control

O=C1CN(c2ccc(Cl)cc2)C(=O)CN1/N=C/c1ccc(O)c(O)c1
inactive: [4] 99 % of control | [5] 93 % of control

CCC1(C)CCC(C)(CC)c2c(C)cc(C(C)=O)cc21 (stereo unspecified)
inactive: dose: 100.0 mg/kg/injection, schedule: Q04DX003 (ip), vehicle: saline with Tween-80 114 % of control | dose: 200.0 mg/kg/injection, schedule: Q04DX003 (ip), vehicle: saline with Tween-80 97 % of control | dose: 400.0 mg/kg/injection, schedule: Q04DX003 (ip), vehicle: saline with Tween-80 92 % of control

NC(Cc1ccc[se]1)C(=O)O (stereo unspecified)
inactive: dose: 6.25 mg/kg/injection, schedule: Q01DX005 (ip), vehicle: saline 105 % of control | dose: 12.5 mg/kg/injection, schedule: Q01DX005 (ip), vehicle: saline 99 % of control | dose: 25.0 mg/kg/injection, schedule: Q01DX005 (ip), vehicle: saline with Tween-80 103 % of control | dose: 25.0 mg/kg/injection, schedule: Q01DX005 (ip), vehicle: saline 97 % of control | [4] 94 % of control

Cc1ccc([N+](=O)[O-])cc1NC(=O)NNC(=O)CNC(=O)NCc1ccco1
inactive: [8] 93 % of control | [9] 89 % of control | [10] 89 % of control

O=C1C2=C(C(=O)c3ncccc31)C1C=CC2CC1 (stereo unspecified)
inactive: dose: 25.0 mg/kg/injection, schedule: Q01DX005 (ip), vehicle: DMSO 100 % of control | dose: 50.0 mg/kg/injection, schedule: Q01DX005 (ip), vehicle: DMSO 100 % of control | dose: 50.0 mg/kg/injection, schedule: Q01DX005 (ip), vehicle: Klucel + Tween-80 102 % of control | dose: 100.0 mg/kg/injection, schedule: Q01DX005 (ip), vehicle: DMSO 104 % of control | dose: 100.0 mg/kg/injection, schedule: Q01DX005 (ip), vehicle: Klucel + Tween-80 96 % of control

ClC(Cl)(Cl)C1=NC2=C(Br)C=C(Br)C3=NC(C(Br)(Br)Br)=NC(=N1)N32
inactive: [14] 105 % of control | [15] 110 % of control

CCSC(CC(C)=O)c1ccccc1 (stereo unspecified)
inactive: [16] 108 % of control | [7] 116 % of control | [17] 105 % of control

CCOc1ccc(N2CC(=O)N3CCCC(C)N3C(=O)C2)cc1 (stereo unspecified)
inactive: [4] 101 % of control | [5] 101 % of control | [6] 103 % of control

CCCCNC(=S)NNc1nc(N(CC)CC)nc(N(CC)CC)n1
inactive: [11] 99 % of control | [12] 99 % of control

CC(C)=NOC1CCCCC1OS(=O)(=O)c1ccc(C)cc1 (stereo unspecified)
inactive: [16] 94 % of control | [7] 95 % of control | [17] 110 % of control

O=C(O)/C(Cl)=C(Cl)\C=N\c1ncn[nH]1
inactive: dose: 6.25 mg/kg/injection, schedule: Q01DX005 (ip), vehicle: Klucel (hydroxypropylcellulose) (HPC) 104 % of control | dose: 12.5 mg/kg/injection, schedule: Q01DX005 (ip), vehicle: Klucel (hydroxypropylcellulose) (HPC) 100 % of control | dose: 25.0 mg/kg/injection, schedule: Q01DX005 (ip), vehicle: Klucel (hydroxypropylcellulose) (HPC) 112 % of control

C1CCCc2c(-c3noc4c3CCCCCC4)noc2CC1
inactive: dose: 60.0 mg/kg/injection, schedule: Q01DX005 (ip), vehicle: saline 98 % of control | dose: 120.0 mg/kg/injection, schedule: Q01DX005 (ip), vehicle: saline 99 % of control | dose: 240.0 mg/kg/injection, schedule: Q01DX005 (ip), vehicle: saline 108 % of control

CC(C)(O)c1ccccc1[S+]1OC(C)(C)c2ccccc21 (stereo unspecified)
inactive: [11] 109 % of control | [12] 112 % of control | [13] 109 % of control

CCOc1c(N=Nc2ccccc2C)c(C)nn1C(=S)SC
inactive: [14] 95 % of control | [15] 92 % of control
